Earlier results as cited in US20100197666A1, “(THIO) -CARBAMOYL-CYCLOHEXANE DERIVATIVES AND METHOD FOR TREATING SCHIZOPHRENIA” (priority 2007, published 2010).

Columns and labels:
Details in all cases: background statement; cited from earlier work
histamine H1 = histamine H1 (Homo sapiens, UniProt P35367)
[1] = system: adrenergic receptor sites
5-HT2C = 5-HT2C (Homo sapiens, UniProt P28335)
Sequence of 5-HT2C (P28335 33-458, species assumed): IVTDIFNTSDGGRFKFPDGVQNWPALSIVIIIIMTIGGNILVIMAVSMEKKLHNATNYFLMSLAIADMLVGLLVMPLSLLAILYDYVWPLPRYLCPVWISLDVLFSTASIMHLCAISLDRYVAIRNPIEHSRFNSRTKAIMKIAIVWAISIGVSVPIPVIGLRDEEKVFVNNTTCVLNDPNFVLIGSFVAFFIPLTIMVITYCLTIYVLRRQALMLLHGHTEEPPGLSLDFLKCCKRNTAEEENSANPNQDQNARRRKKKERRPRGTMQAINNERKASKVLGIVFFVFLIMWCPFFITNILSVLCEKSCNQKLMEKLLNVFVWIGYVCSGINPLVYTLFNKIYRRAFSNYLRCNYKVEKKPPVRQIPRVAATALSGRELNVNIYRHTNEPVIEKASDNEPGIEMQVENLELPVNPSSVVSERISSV

Sequence of histamine H1 (P35367 whole entry): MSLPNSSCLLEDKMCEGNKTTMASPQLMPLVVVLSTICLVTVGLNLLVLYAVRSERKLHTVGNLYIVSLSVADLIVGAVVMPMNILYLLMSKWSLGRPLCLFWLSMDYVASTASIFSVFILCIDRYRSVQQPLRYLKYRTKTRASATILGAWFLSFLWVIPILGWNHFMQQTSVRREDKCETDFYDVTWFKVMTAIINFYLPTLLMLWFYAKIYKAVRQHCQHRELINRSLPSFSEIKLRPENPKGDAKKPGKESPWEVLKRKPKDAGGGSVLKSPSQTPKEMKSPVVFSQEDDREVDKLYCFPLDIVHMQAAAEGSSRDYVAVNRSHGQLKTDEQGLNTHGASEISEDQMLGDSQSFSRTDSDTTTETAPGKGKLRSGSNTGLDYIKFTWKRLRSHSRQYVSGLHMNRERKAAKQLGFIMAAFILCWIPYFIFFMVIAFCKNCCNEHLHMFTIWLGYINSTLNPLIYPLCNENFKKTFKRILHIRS

CN(C)C(=O)NC1CCC(CCN2CCN(c3cccc(Cl)c3Cl)CC2)CC1.Cl (stereo not drawn) [trans-4-{2-[4-(2,3-dichlorophenyl)-piperazin-1-yl]-ethyl}-N,N-dimethylcarbamoyl-cyclohexylamine hydrochloride]
low potency: potency at histamine H1 receptor site (histamine H1) | potency at adrenergic receptor sites [1] | potency at 5-HT2C receptor site (5-HT2C)
